The values that follow are results of earlier work, collected in patent publication US9107941B2, “Methods and compositions for reducing L-pipecolic acid effects in animals” (SarTec Corporation, priority 2006, dated 2015).

Data set [1] deals with chicks. The settings on record: ICV injection.
Data set [2] has as its system neuronal cells.

`O=C(O)[C@@H]1CCCCN1` [L-PIP, L-pipecolic acid]: in data set [1], the food intake entry is “inhibited food intake” and the sleep-like behavior result is reported as “induced sleep-like behavior”. For the same molecule, the “apoptosis in neuronal cells” value in data set [2] is “induce apoptosis”.
